Assay results reported in patent US6414031B1, “Bisoximether derivatives, methods and intermediate products for the production thereof, and their use for combating fungicidal pests and animal pests” (BASF Aktiengesellschaft, priority 1998, dated 2002).

Assays:
Format in all cases: in vivo
[1] = system: Plasmopara viticola; test: Activity against Plasmopara viticola on grape leaves (long-term action); conditions: 16 ppm, grape leaves inoculated 7 days after spraying; untreated 85%
Source text: (§1) The active ingredients, separately or together, were formulated as a 10% emulsion in a mixture of 70% by weight of […], 20% by weight of Nekanil® LN (Lutensol® AP6, wetter having emulsifying and dispersant action, based on ethoxylated alkylphenols) and 10% by weight of Wettol® EM (non-ionic emulsifier based on ethoxylated castor oil) and diluted with water to give the desired concentration.
Leaves of grapes cv. “Müller-Thurgaul” in pots were sprayed to runoff with aqueous active ingredient preparations made with a stock solution of 10% active ingredient, 63% cyclohexanone and 27% of emulsifier. In order to be able to assess the long-term action of the substances, the spray coating was allowed to dry off and the plants were then placed in the greenhouse for 7 days. Only then were the leaves inoculated with an aqueous zoospore suspension of Plasmopara viticola. Then, the vines were first placed for 48 hours into a water-vapor-saturated chamber at 24° C. and then for 5 days in the greenhouse at temperatures between 20 and 30° C. After this time, the plants were returned to a humid chamber for 16 hours to accelerate sporangiophore eruption for 16 hours. The extent of the disease development on the undersides of the leaves was then determined visually.

[2] = system: Puccinia recondita; test: Curative activity against Puccinia recondita on wheat (leaf rust); conditions: 1 ppm, wheat sprayed 1 day after infection, assessed after 7 days, untreated 90%
Source text: as §1
Leaves of wheat seedling cv. “Kanzler” grown in pots were dusted with leaf rust spores (Puccinia recondita). The pots were then placed for 24 hours into a chamber with high atmospheric humidity (90 to 95%) and 20 to 22° C. During this time, the spores germinated and the germ tubes penetrated the leaf tissue. Next day, the infected plants were sprayed to runoff with an aqueous active ingredient preparation made with a stock solution consisting of 10% of active ingredient, 63% of cyclohexanone and 27% of emulsifier. After the spray coating had dried on, the test plants were grown in the greenhouse for 7 days at temperatures between 20 and 22° C. and a relative atmospheric humidity of 65 to 70%. The extent of rust development on the leaves was then determined.

[3] = system: Aphis fabae; test: Action against Aphis fabae, contact action; conditions: infested dwarf beans (Vicia faba), mortality after 24 hours
Source text: (§2) The active ingredients were formulated
(§3) a. as a 0.1% strength solution in acetone or
(§4) b. as a 10% emulsion in a mixture of 70% by weight of cyclohexanone, 20% by weight of Nekanil® LN (Lutensol® AP6, wetter having emulsifying and dispersant action, based on ethoxylated alkylphenols) and 10% by weight of Wettol® EM (non-ionic emulsifier based on ethoxylated castor oil)
(§5) and diluted to give the desired concentration, using acetone in the case of a. and water in the case of b.
Severely infested dwarf beans (Vicia faba) in the four-leaf stage were treated with aqueous formulations of active ingredient. The mortality rate was determined after 24 hours.

[4] = system: Nephotettix cincticeps; test: Action against Nephotettix cincticeps (crop spray experiment); conditions: sprayed rice plants, adult leafhoppers, mortality after 24 hours
Source text: as §2, §3, §4, §5
Rice plants grown in pots (plant height approximately 8 cm) were sprayed to runoff point with aqueous formulations of active ingredients. After drying, the plants were populated with 20 adult leafhoppers. The mortality was determined after 24 hours.

[5] = system: Nephotettix cincticeps; test: Action against Nephotettix cincticeps, contact action (filter disks); conditions: treated filter disks, adult leafhoppers, mortality after 24 hours
Source text: as §2, §3, §4, §5
Filter disks (Ø 9 cm) were treated with 1 ml of aqueous formulations of the active ingredient and subsequently populated with five adult leafhoppers. The mortality was determined after 24 hours.

CNC(=O)C(=NOC)c1ccccc1CON=C(C)C(=NOC)C1CCCCC1 [D]
disease level (undersides of the leaves) [1]: 60% | disease level (extent of rust development on the leaves) [2]: 90%

COC=C(C(=O)OC)c1ccccc1CON=C(C)C(=NOC)C1CCCCC1 [A]
limit concentration (lowest concentration with 80 to 100% inhibition or mortality) [3]: 100 ppm | limit concentration (lowest concentration with 80 to 100% inhibition or mortality) [4]: 400 ppm | limit concentration (lowest concentration with 80 to 100% inhibition or mortality) [5]: 0.2 mg | disease level (extent of rust development on the leaves) [2]: 90%

COC=C(C(=O)OC)c1ccccc1CON=C(C)C(=NOC)C1CCC(C)CC1 (centres unmarked) [Compound I-3]
limit concentration (lowest concentration with 80 to 100% inhibition or mortality) [5]: 0.04 mg

CON=C(C(=O)OC)c1ccccc1CON=C(C)C(=NOC)C1CCCCC1 [C]
limit concentration (lowest concentration with 80 to 100% inhibition or mortality) [3]: 100 ppm

CC=C(C(=O)OC)c1ccccc1CON=C(C)C(=NOC)C1CCCCC1 [B]
limit concentration (lowest concentration with 80 to 100% inhibition or mortality) [4]: 400 ppm | limit concentration (lowest concentration with 80 to 100% inhibition or mortality) [5]: 0.2 mg

CC=C(C(=O)OC)c1ccccc1CON=C(C)C(=NOC)C1CCC(C)CC1 (centres unmarked) [Compound I-4]
limit concentration (lowest concentration with 80 to 100% inhibition or mortality) [5]: 0.04 mg
